The results in this text go back to PubChem BioAssay AID504713 (Southern Research Specialized Biocontainment Screening …, 2011).

Molecules are shown by their SMILES. Calls of active or inactive are those of the source. The rule behind the calls is not given here.

Tested on in the first assay: not listed separately
Put plainly: mammalian cell cytotoxicity, cytotoxicity control, set 3 (AID 504713). The settings on record: mammalian cell cytotoxicity, viability, CC50; at 100 µM (top of the series).
In the case of `Oc1ccc2[nH]ccc2c1`, the viability was 106% (inactive).

As for `COc1ccc(C(=O)Nc2ccc3nc(N4CCCCC4)cc(C)c3c2)c(OC)c1`, the viability was 96.5% (inactive).

Take `COc1ccc2nc(NC(=O)c3oc4ccccc4c3C)sc2c1`: the viability is 94.4% (inactive).

As to `Cc1ccc(OCC(=O)Nc2nc3ccc(F)cc3s2)cc1`, the viability was 103% (inactive).

In the case of `CC(=O)Nc1ccc2nc(NC(=O)Cc3ccccc3)sc2c1`, the viability was 95.1% (inactive).

As for `COc1ccc2nc(NC(=O)COc3ccc(Cl)cc3)sc2c1`, the viability was 95.2% (inactive).

As for `COc1ccc2c(c1)cc(C)n2-c1ccccc1`, the viability was 92.9% (inactive).

For the molecule `O=C(COC(=O)C1=COCCO1)Nc1ccc2c(c1)OCO2`, the viability is 94.5% (inactive).

As to `O=C(OC(C(=O)Nc1ccc(Cl)cc1C(F)(F)F)c1ccccc1)C1=COCCO1` (stereo not drawn), the viability was 84.8% (inactive).

On to `CC(=O)c1c(C)n(-c2ccccc2)c2ccccc12`, for which the viability was 98.2% (inactive).

Turning to `COc1ccc2nc(NC(=O)COc3c(C)cc(C)cc3C)sc2c1`, the viability is 94.5% (inactive).

Regarding `COc1ccc2c(c1)c(C(C)=O)c(C)n2-c1ccccc1`, the viability was 96.1% (inactive).

As for `Cc1cccnc1NC(=S)NC(=O)c1cncc(Br)c1`, the viability is 108% (inactive).

`CN(NC(=O)c1c(Cl)cccc1Cl)c1cccc(Cl)n1`: the viability was 93.6% (inactive).

Take `Cc1ccc(OC(C)C(=O)Nc2ncccn2)c(C)c1` (stereo not drawn): the viability is 96.2% (inactive).

With `COc1ccc2nc(NC(=O)COc3ccccc3C(C)C)sc2c1`, the viability is 89.6% (inactive).

As to `COc1ccc2nc(NC(=O)COc3ccccc3)sc2c1`, the viability is 109% (inactive).

For `CCOc1ccc2c(c1)cc(C)n2-c1ccccc1`, the viability was 95.5% (inactive).

As to `O=C(Cc1csc(-c2ccccc2F)n1)Nc1nc2ccccc2[nH]1`, the viability is 105% (inactive).

With `CCOc1ccc(NC(=O)COc2ccc(C)cc2C)cc1`, the viability was 97.5% (inactive).

As to `CCOc1ccc2nc(NC(=O)COc3ccc(F)cc3)sc2c1`, the viability was 103% (inactive).

As for `S=C(Nc1ccccc1)Nc1ccc(Cl)cn1`, the viability was 107% (inactive).

`CCOc1ccc2[nH]c(C)cc2c1`: the viability was 93% (inactive).

As for `Cc1ccc(OCC(=O)Nc2cccc3c(NC(=O)COc4ccc(C)cc4C)cccc23)c(C)c1`, the viability is 100% (inactive).

As to `N/C(=N\c1nc2ccccc2o1)NC(=O)c1ccccc1Br`, the viability was 87% (inactive).

In the case of `O=C(COC(=O)C1CC1)c1c[nH]c2ccccc12`, the viability was 98.9% (inactive).

As to `CC(=O)Nc1ccc2nc(NC(=O)COc3ccccc3)sc2c1`, the viability is 96.2% (inactive).

For the molecule `CC(=O)c1c(C)n(-c2cccc(Cl)c2)c2ccc(O)cc12`, the viability is 89% (inactive).

Turning to `O=C(CC12CC3CC(CC(C3)C1)C2)NCc1ccc(F)cc1`, the viability is 99.1% (inactive).

In the case of `Cc1cccc(C)c1OCC(=O)Nc1nc2ccccc2s1`, the viability is 93.4% (inactive).

As to `Cc1ccccc1OCC(=O)Nc1ncn[nH]1`, the viability is 95.4% (inactive).

In the case of `Cc1cc2cc(F)ccc2[nH]1`, the viability is 102% (inactive).

Consider `CCC(CC)c1nnc(NC(=O)c2ccc(N3CCCCC3)c([N+](=O)[O-])c2)s1`, for which the viability is 96.7% (inactive).

On to `CCOc1ccc2c(c1)c(C(C)=O)c(C)n2Cc1ccco1`, for which the viability was 97.1% (inactive).

On to `COC(=O)c1ccc2nc(NC(=O)COc3ccccc3)sc2c1`, for which the viability is 99.9% (inactive).

Turning to `Cc1cc(C)c(OCC(=O)Nc2nc3ccccc3s2)c(Cl)c1`, the viability is 98.1% (inactive).

Consider `Cc1cc(C)c(OCC(=O)Nc2nc3ccccc3[nH]2)c(C)c1`, for which the viability was 88.5% (inactive).

For `O=C(COc1cccc2ccccc12)Nc1nc2ccccc2s1`, the viability was 82.9% (inactive).

Turning to `CCOC(=O)c1cnc2cc(-c3ccc(C(C)(C)C)cc3)nn2c1N`, the viability is 94.4% (inactive).

On to `CCCN1CC(O)=C(c2nc3ccccc3s2)C1=N`, for which the viability is 88.5% (inactive).

Turning to `O=C(COc1ccc2c3c(c(=O)oc2c1)CCC3)Nc1nc2ccccc2[nH]1`, the viability is 97% (inactive).

With `Cc1cc2cc(O)ccc2[nH]1`, the viability was 103% (inactive).

`c1ccc(OCc2nnc(-c3ccccc3)o2)cc1`: the viability is 95.4% (inactive).

Turning to `COc1cccc(NC(=O)C2CC2)c1`, the viability was 90.2% (inactive).

As for `CCc1ccc2nc(/N=C(\N)NC(=O)c3ccccc3)nc(C)c2c1`, the viability was 94.8% (inactive).

`Cc1ccc(OCC(=O)Nc2cccc3ncccc23)c(C)c1`: the viability was 92.8% (inactive).

Consider `Cc1ccccc1OCC(=O)Nc1nnn(C)n1`, for which the viability was 95.7% (inactive).

Turning to `Cc1ccc(OCC(=O)Nc2ccc(Cl)cc2)c(C)c1`, the viability was 97.9% (inactive).

Regarding `Cc1cc2cc(F)ccc2n1-c1ccccc1`, the viability is 93.3% (inactive).

With `O=C(CSc1n[nH]c(=O)n1C1CC1)c1ccc2c(c1)OCCO2`, the viability is 104% (inactive).

With `O=C(O)CCC(=O)Nc1nc2ccccc2s1`, the viability is 102% (inactive).

Take `CCOC(=O)c1c(C)[nH]c2ccccc12`: the viability is 85.7% (inactive).

In the case of `CC(=O)c1c(C)n(-c2ccccc2)c2ccc(O)cc12`, the viability is 85% (inactive).

As for `COc1cccc(NC(=S)Nc2cc(C)cc(C)n2)c1`, the viability was 100% (inactive).

In the case of `O=C(COc1ccccc1)Nc1nc2ccccc2s1`, the viability is 104% (inactive).

Take `Cc1ccccc1OCC(=O)Nc1noc(-c2ccccc2)n1`: the viability is 100% (inactive).

For `O=C(Nc1nc2ccccc2[nH]1)c1ccc(Cl)c(Cl)c1`, the viability is 90.6% (inactive).

On to `COc1cccc(-c2ccc(-c3noc(-c4ccccc4F)n3)c(OC)n2)c1`, for which the viability was 91.7% (inactive).

As to `Cc1ccc(OCC(=O)Nc2ccc3c4c(cccc24)CC3)c(C)c1`, the viability is 80.3% (inactive).

With `CC(=O)c1c(C)n(-c2ccccc2C)c2ccc(O)cc12`, the viability is 95.5% (inactive).

For the molecule `COc1ccc2[nH]c(C)cc2c1`, the viability was 103% (inactive).

As to `Cc1cc(C)c(OCC(=O)Nc2nc3ccc(C)cc3s2)c(C)c1`, the viability is 97.6% (inactive).

As to `CC(C)Cn1c2c(c(O)c(C(=O)Nc3nccs3)c1=O)CCCC2`, the viability was 100% (inactive).

As to `CCCOc1ccc2c(c1)c(C(C)=O)c(C)n2-c1ccccc1`, the viability is 97.2% (inactive).

For the molecule `CCOc1ccc2nc(NC(=O)COc3ccccc3)sc2c1`, the viability is 86% (inactive).

For the molecule `CCOc1ccc2c(ccn2-c2ccccc2)c1`, the viability is 99.9% (inactive).

`CCOc1ccc2nc(NC(=O)Cc3ccc(OC)cc3)sc2c1`: the viability is 100% (inactive).

Turning to `CCOc1ccc2[nH]ccc2c1`, the viability is 97.9% (inactive).

In the case of `CCOc1ccc2nc(NC(=O)c3cnccn3)sc2c1`, the viability is 80.3% (inactive).

As to `CCOc1ccc2nc(NC(=O)COc3ccc(OC)cc3)sc2c1`, the viability is 102% (inactive).

Consider `Cc1ccc(OCC(=O)Nc2nnn(C)n2)c(C)c1`, for which the viability is 103% (inactive).

As for `CCOC(=O)COc1nc(-c2ccc(Cl)cc2)cc(-c2ccco2)c1C#N`, the viability was 103% (inactive).

In the case of `Cc1ccccc1OCC(=O)Nc1ncccn1`, the viability is 106% (inactive).

As for `O=C(COc1ccccc1Cl)Nc1nc2ccccc2s1`, the viability is 92.2% (inactive).

Regarding `CC(C)(C)c1ccc(OCC(=O)Nc2nc3ccccc3s2)cc1`, the viability was 98.8% (inactive).

Turning to `CCOc1ccc2[nH]cc(C(=O)OC)c2c1`, the viability is 86.9% (inactive).

With `c1ccc(Nc2ncnc3c2oc2ccccc23)cc1`, the viability is 88% (inactive).

`O=C(COc1ccc(Cl)cc1)Nc1nc2ccc(F)cc2s1`: the viability is 96.1% (inactive).

For `COC(=O)c1c(C)[nH]c2ccccc12`, the viability was 82.6% (inactive).

Take `Cc1ccc(C(C)C)c(OCC(=O)Nc2nc3ccccc3s2)c1`: the viability was 92% (inactive).

Regarding `Cc1onc(-c2c(Cl)cccc2Cl)c1/C(N)=N/OC(=O)C1CC1`, the viability was 107% (inactive).

Consider `CC(=O)c1c(C)n(-c2ccccc2)c2ccc(OS(=O)(=O)C(F)(F)F)cc12`, for which the viability is 92.2% (inactive).

In the case of `CC(=O)c1c(C)n(-c2ccc(C)cc2)c2ccc(O)cc12`, the viability was 94.9% (inactive).

Regarding `CCOc1ccc2nc(NC(=O)COc3ccc(Cl)c(C)c3)sc2c1`, the viability was 112% (inactive).

Regarding `O=C(Cc1ccccc1Cl)Nc1nc2ccccc2[nH]1`, the viability was 100% (inactive).

Regarding `COC(=O)c1c(C)[nH]c2ccc(Cl)cc12`, the viability is 80% (inactive).

As to `N/C(=N\c1nc2ccccc2o1)NC(=O)C1CC1`, the viability is 83% (inactive).

`N/C(=N\c1nc2ccccc2o1)NC(=O)c1ccccc1F`: the viability was 99.9% (inactive).

For `Cc1ccc(OCC(=O)Nc2cccc3ccccc23)c(C)c1`, the viability was 93.3% (inactive).

Consider `Cc1ccc(OCC(=O)Nc2nc3c(Cl)cccc3s2)cc1`, for which the viability was 108% (inactive).

On to `Cc1cc2ccccc2n1-c1ccccc1`, for which the viability is 93.4% (inactive).

Another assay concerns mammalian cell cytotoxicity, viability, CC50. The description is as above.
Conditions: not given
Consider `Cc1ccc2sc(NC(=O)COc3ccccc3)nc2c1C`, for which the CC50 was 36.6 µM.

For the molecule `Cc1ccc2oc(/N=C(\N)NC(=O)c3ccccc3)nc2c1`, the CC50 was 35.1 µM.

For `N/C(=N\c1nc2ccccc2o1)NC(=O)c1ccccc1`, the CC50 was 19.3 µM.

For `CCOc1ccc2nc(NC(=O)C3(c4ccccc4)CCCC3)sc2c1`, the CC50 is 87.6 µM.

Consider `O=C(Nc1ccccc1)Nc1csc2ccccc12`, for which the CC50 was 76.6 µM.

Consider `N/C(=N\c1nc2cc(Cl)ccc2o1)NC(=O)c1ccccc1`, for which the CC50 was 43.2 µM.

Turning to `c1ccc(-c2cc(N3CCOCC3)nc3ccccc23)cc1`, the CC50 is 90.8 µM.
